Reference: US7659289B2, “Hydroxyethylene-based β-secretase inhibitors and use thereof” (CoMentis, Inc., priority 2004, dated 2010)

How the values were obtained:
[1] = system: Aβ production; assay: Cellular Aβ IC50 determination (Aβ40 sandwich ELISA); format: cell-based; details: Cricetulus griseus; Aβ40, Chinese hamster ovary cells over-expressing human APP695 with London and Swedish mutations, 24 h incubation
Experimental: The potency of compounds against memapsin 2 activity was determined in a cellular assay of Aβ production. […] Chinese hamster ovary cells that over-express human APP695 with the London and Swedish mutations were seeded in multi-well plates at 10% confluency. Compounds were dissolved in DMSO to concentrations near 1 mM, and diluted into culture media to a final concentration near 4 μM (final 0.4% DMSO). Compounds were diluted serially and applied to cells in multi-well plates 48 h after seeding. Incubation was continued in 5% CO2 at 37 degrees C. for 24 h. Aliquots were removed and assayed for Aβ40 content using a sandwich ELISA (BioSource International). Amount of Aβ40 over the range of concentration of compounds, relative to control incubations, were fit to a 4-parameter IC50 model.

[2] = biological target: Cathepsin D (Homo sapiens, UniProt P07339); assay: Inhibition of cathepsin D activity (MALDI-TOF, substrate peptide […]); format: biochemical; details: pH 4.1, 37 degrees C., read-out: Cath D Ki
[3] = biological target: memapsin 2 (Homo sapiens, UniProt P56817); assay: Inhibition of memapsin 2 beta-secretase activity toward fluorogenic substrate FS-2; format: biochemical; details: pH 4, 37° C., 20 minutes pre-incubation, fluorogenic substrate FS-2, tight-binding model; read-out: M2 Ki
memapsin 2, sequence (P56817 46-501): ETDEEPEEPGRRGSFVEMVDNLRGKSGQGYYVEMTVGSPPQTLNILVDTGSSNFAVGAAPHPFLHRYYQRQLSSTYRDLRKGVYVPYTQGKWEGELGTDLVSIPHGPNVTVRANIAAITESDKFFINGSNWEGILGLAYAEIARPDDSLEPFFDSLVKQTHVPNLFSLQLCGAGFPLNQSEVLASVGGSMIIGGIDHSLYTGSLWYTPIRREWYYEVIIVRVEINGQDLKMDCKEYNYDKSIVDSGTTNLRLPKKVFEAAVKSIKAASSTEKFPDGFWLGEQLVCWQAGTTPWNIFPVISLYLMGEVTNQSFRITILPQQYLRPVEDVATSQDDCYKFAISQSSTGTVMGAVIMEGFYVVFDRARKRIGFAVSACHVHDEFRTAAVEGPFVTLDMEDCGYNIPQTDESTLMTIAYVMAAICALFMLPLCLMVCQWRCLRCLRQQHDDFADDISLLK
Experimental: Potency of compounds were determined by measurement of their inhibition of memapsin 2 activity toward a fluorescent substrate. […] Briefly, assays were performed at pH 4, 37° C., by pre-incubation of memapsin 2 enzyme with compound for 20 minutes. Activity measure was initiated by addition of a fluorogenic substrate FS-2 (Bachem Americas, Torrance, Calif.). Fluorescent signal increase over time was measured as a rate of hydrolysis of the peptide substrate.

Cathepsin D, sequence (P07339 65-412, species assumed): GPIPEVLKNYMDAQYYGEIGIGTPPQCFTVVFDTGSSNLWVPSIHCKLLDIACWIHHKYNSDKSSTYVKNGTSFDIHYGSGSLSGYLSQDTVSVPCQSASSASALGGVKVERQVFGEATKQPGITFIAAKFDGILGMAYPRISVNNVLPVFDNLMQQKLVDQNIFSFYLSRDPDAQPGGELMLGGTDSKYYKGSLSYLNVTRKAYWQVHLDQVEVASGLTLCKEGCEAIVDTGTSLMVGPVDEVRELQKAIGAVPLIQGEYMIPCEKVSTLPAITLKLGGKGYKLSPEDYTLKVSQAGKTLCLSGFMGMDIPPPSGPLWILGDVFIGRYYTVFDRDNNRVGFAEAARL

| SMILES | IC50 [1] | Ki [2] | Ki [3] |
| --- | --- | --- | --- |
| CCC(Cn1nc(C)cc1C)C(=O)N[C@@H](CNC(=O)OCCF)C(=O)N[C@@H](CC(C)C)[C@@H](O)C[C@@H](C)C(=O)N[C@H](C(=O)NCC(C)C)C(C)C (stereo partly drawn) [2-fluoroethyl (2S)-2-(2-((3,5-dimethyl-1H-pyrazol-1-yl)methyl)butanamido)-3-((4S,5S,7R)-5-hydroxy-8-((S)-1-(isobutylamino)-3-methyl-1-oxobutan-2-ylamino)-2,7-dimethyl-8-oxooctan-4-ylamino)-3-oxopropylcarbamate] | 6000 to 100000 nM | < 100 nM | < 100 nM |
| CC[C@@H](Cc1nc(C)cs1)C(=O)N[C@@H](CNC(=O)OC(C)C)C(=O)N[C@@H](CC(C)C)[C@@H](O)C[C@@H](C)C(=O)N[C@H](C(=O)NCC(C)C)C(C)C [isoproyl (S)-3-((4S,5S,7R)-5-hydroxy-8-((S)-1-(isobutylamino)-3-methyl-1-oxobutan-2-ylamino)-2,7-dimethyl-8-oxooctan-4-ylamino)-2-((S)-2-((4-methylthiazol-2-yl)methyl)butanamido)-3-oxopropylcarbamate] | < 6000 nM | < 100 nM | < 100 nM |
| Cc1csc(C[C@H](C)C(=O)N[C@@H](CNC(=O)O[C@H]2CCOC2)C(=O)N[C@@H](CC(C)C)[C@@H](O)C[C@@H](C)C(=O)N[C@H](C(=O)NCC(C)C)C(C)C)n1 [(S)-tetrahydrofuran-3-yl(S)-3-((4S,5S,7R)-5-hydroxy-8-((S)-1-(isobutylamino)-3-methyl-1-oxobutan-2-ylamino)2,7-dimethyl-8-oxooctan-4-ylamino)-2-((S)-2-methyl-3-(4-methylthiazol-2-yl)propanamido)-3-oxopropylcarbamate] | < 6000 nM | < 100 nM | < 100 nM |
| COC(Cn1nc(C)cc1C)C(=O)N[C@@H](CNC(=O)OC(C)(C)C)C(=O)N[C@@H](CC(C)C)[C@@H](O)C[C@@H](C)C(=O)N[C@H](C(=O)NCC(C)C)C(C)C (stereo partly drawn) [tert-butyl (2S)-2-(3-(3,5-dimethyl-1H-pyrazol-1-yl)-2-methoxypropanamido)-3-((4S,5S,7R)-5-hydroxy-8-((S)-1-(isobutylamino)-3-methyl-1-oxobutan-2-ylamino)-2,7-dimethyl-8-oxooctan-4-ylamino)-3-oxopropylcarbamate] | > 100000 nM | < 100 nM | 100 to 600 nM |
| Cc1csc(C[C@H](C)C(=O)N[C@@H](CNC(=O)O[C@@H]2CCOC2)C(=O)N[C@@H](CC(C)C)[C@@H](O)C[C@@H](C)C(=O)N[C@H](C(=O)NCC(C)C)C(C)C)n1 [(R)-tetrahydrofuran-3-yl (S)-3-((4S,5S,7R)-5-hydroxy-8-((S)-1-(isobutylamino)-3-methyl-1-oxobutan-2-ylamino)2,7-dimethyl-8-oxooctan-4-ylamino)-2-((S)-2-methyl-3-(4-methylthiazol-2-yl)propanamido)-3-oxopropylcarbamate] | < 6000 nM | < 100 nM | < 100 nM |
| COCCOC(=O)NC[C@H](NC(=O)[C@@H](C)Cc1nc(C)cs1)C(=O)N[C@@H](CC(C)C)[C@@H](O)C[C@@H](C)C(=O)N[C@H](C(=O)NCC(C)C)C(C)C [2-methoxyethyl (S)-3-((4S,5S,7R)-5-hydroxy-8-((S)-1-(isobutylamino)-3-methyl-1-oxobutan-2-ylamino)-2,7-dimethyl-8-oxooctan-4-ylamino)-2-((S)-2-methyl-3-(4-methylthiazol-2-yl)propanamido)-3-oxopropylcarbamate] | < 6000 nM | < 100 nM | < 100 nM |
| Cc1csc(C[C@H](C)C(=O)N[C@@H](CNC(=O)OC(C)(C)C)C(=O)N[C@@H](CC(C)C)[C@@H](O)C[C@@H](C)C(=O)N[C@H](C(=O)NN(C)C)C(C)C)n1 [tert-butyl (S)-3-((4S,5S,7R)-8-((S)-1-(2,2-dimethylhydrazinyl)-3-methyl-1-oxobutan-2-ylamino)-5-hydroxy-2,7-dimethyl-8-oxooctan-4-ylamino)-2-((S)-2-methyl-3-(4-methylthiazol-2-yl)propanamido)-3-oxopropylcarbamate] | < 6000 nM | 100 to 600 nM | < 100 nM |
